Data published in paper PMC8683085, “Serine ADP-ribosylation marks nucleosomes for ALC1-dependent chromatin remodeling” (eLife, 2021).
Like-named read-outs stand apart in the source and are kept apart here.

How the values were obtained:
[1] = molecular target: T1, Af1521 macrodomain (fused to rabbit Fc tag) (Archaeoglobus fulgidus, UniProt O28751); assay: Fluorescence polarization binding of fluorescein-labeled ADP-ribosylated histone peptides to the Af1521 macrodomain (pan-ADP-ribose detection reagent); details: fluorescein-labeled peptide 2 nM, reagent titrated 0-2000 nM (4000 nM for mono-/di-ADPr), 25 mM Tris pH 7.5, 100 mM NaCl, 2 mM MgCl2, 0.001% Triton X100, 1 mM DTT, one-site specific binding fit, n = 3, read-out: Kd,app
T1 construct: Af1521 macrodomain fused to rabbit Fc tag, MilliporeSigma; purchased MilliporeSigma
T1 sequence (O28751 1-192): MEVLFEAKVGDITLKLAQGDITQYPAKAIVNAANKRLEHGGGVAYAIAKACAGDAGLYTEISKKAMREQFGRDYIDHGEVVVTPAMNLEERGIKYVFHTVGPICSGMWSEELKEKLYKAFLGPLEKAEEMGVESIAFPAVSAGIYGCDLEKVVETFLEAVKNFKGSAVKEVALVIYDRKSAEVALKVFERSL

ALC1 macrodomain [2] = molecular target: T2, ALC1 macrodomain (Homo sapiens, UniProt Q86WJ1); assay: Fluorescence polarization binding of fluorescein-labeled ADP-ribosylated histone peptides to the ALC1 macrodomain
T2 construct: A fragment encoding amino acids 636–878, corresponding to the macrodomain; 6xHis-SUMO (N, cleaved yes); made in house; host or cells: E. coli Rosetta2 (DE3)
T2 sequence (Q86WJ1 636-878): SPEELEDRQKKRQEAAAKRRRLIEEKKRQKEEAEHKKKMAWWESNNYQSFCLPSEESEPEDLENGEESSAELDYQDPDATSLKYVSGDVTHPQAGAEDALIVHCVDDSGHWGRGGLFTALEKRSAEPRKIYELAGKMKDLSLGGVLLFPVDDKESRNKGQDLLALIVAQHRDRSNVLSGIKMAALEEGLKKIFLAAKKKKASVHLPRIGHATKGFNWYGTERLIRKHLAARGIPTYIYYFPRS
Method: Each fluorescently-labeled H2B (unmodified, mono-, di-, tri-, and tetra-ADP-ribose at H2BS6) and H3 peptide (unmodified, mono-, di-, tri-, tetra-, or penta-ADP-ribose at H3S10) was diluted to 2 nM in a buffer containing 25 mM Tris, pH 7.5, 100 mM NaCl, 2 mM MgCl2, 0.001% Triton X100, and 1 mM DTT. Note, H3 elongates more efficiently than H2B and so the penta-ADP-ribosylated species could be isolated for this peptide. Peptide concentration was calculated via fluorescein extinction coefficient (A480 = 70,000). To analyze peptide:pan-ADP-ribose detection reagent (Af1521 macrodomain fused to rabbit Fc tag, MilliporeSigma) interaction, the pan-ADP-ribose detection reagent was titrated into each peptide to final concentrations ranging from 0 to 2000 nM (points represent 3 x dilutions starting from 2000 nM; a higher concentration of 4000 nM was also included for mono- and di-ADP-ribosylated peptides). To analyze peptide:ALC1-macrodomain interaction, the ALC1-macrodomain was titrated into each peptide to final concentrations ranging from 0 to 3000 nM (points represent 3 x dilutions starting from 3000 nM). Reactions were added to a black, flat-bottom 96-well plate (Corning Costar) and analyzed on a BioTek Cytation five imager equipped with a Green FP filter set (excitation: 485 nm, emission: 528 nm). […]

ALC1 = molecular target: T3, ALC1 (Homo sapiens, UniProt Q86WJ1); assay: Restriction enzyme accessibility (REA) nucleosome remodeling assay, single substrate, recombinant ALC1; assay type: biochemical; details: for k, ALC1 remodeling rate constant on unmodified nucleosome in the presence of free ADP-ribosylated peptide: REA assay, 4 nM ALC1, unmodified nucleosome 20 nM, peptide 40 nM, 2 mM ATP, one-phase exponential decay fit, n = 3
T3 sequence (Q86WJ1 1-897): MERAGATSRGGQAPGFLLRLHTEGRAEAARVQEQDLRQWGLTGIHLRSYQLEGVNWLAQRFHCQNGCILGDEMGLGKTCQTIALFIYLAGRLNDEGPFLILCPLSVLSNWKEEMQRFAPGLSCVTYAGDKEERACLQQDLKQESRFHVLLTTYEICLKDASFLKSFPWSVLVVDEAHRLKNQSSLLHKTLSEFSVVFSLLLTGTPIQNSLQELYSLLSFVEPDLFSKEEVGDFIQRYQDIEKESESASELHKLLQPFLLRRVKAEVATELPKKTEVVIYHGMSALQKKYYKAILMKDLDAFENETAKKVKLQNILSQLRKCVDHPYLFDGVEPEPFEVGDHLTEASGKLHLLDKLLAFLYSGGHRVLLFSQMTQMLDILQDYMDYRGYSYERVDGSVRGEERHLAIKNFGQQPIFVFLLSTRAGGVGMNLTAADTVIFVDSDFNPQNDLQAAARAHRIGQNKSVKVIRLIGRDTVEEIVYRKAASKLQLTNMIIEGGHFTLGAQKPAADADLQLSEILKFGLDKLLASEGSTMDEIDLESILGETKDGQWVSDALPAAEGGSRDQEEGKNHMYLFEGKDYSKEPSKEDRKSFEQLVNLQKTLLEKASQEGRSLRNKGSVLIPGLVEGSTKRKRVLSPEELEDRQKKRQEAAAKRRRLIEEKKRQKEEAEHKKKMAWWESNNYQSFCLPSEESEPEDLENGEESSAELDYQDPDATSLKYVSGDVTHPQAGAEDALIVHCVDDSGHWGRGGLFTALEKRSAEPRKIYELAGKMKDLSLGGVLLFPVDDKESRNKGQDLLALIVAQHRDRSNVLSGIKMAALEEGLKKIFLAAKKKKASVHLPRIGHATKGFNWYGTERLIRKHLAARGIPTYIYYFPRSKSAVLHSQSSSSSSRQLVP
Method: REA assays and analysis were performed as previously described ([Dann et al., 2017]) with several modifications. Nucleosome remodeling reactions (25 μL) were carried out in REA Buffer (12 mM HEPES, pH 7.9, 4 mM Tris, pH 7.5, 60 mM KCl, 10 mM MgCl2, 10% glycerol, and 0.02% NP-40) including 1 μL of PstI (NEB, at 100,000 U/mL), 2 mM ATP (Sigma-Aldrich), and final concentrations of 4 nM ALC1 or 10 nM CHD4 and 20 nM of the desired nucleosome substrate. The reaction was incubated for 5 min prior to addition of chromatin remodeler to ensure that any trace amount of free DNA from the nucleosome assembly was digested prior to initiating the reaction. This is required to ensure that free DNA digestion can be assigned as background activity and is not interpreted as enzyme-dependent nucleosome remodeling in data processing. To each reaction, 37.5 μL of Quench Buffer (20 mM Tris, pH 7.5, 70 mM EDTA, pH 8, 2% SDS, 10% glycerol) was added at time points of 0, 3, 6, 18, 36, and 60 min. Samples were then deproteinized with 30 U/mL proteinase K (NEB) for 1 h at 37 °C. DNA purification was performed using the Qiagen PCR purification kit following manufacturer’s protocols. Purple Gel Loading Dye (6 X, NEB) was added to a final concentration of 1 X to the quenched reaction and samples were loaded onto a 5% TBE gel and run for 60 min at 150 volts in 0.5 X TBE Buffer (BioRad). Gels were stained with ethidium bromide and imaged on a BioRad ChemiDoc. Gel densitometry measurements were performed using ImageJ. For each lane, the total densitometry signal was calculated by adding the densitometry values corresponding to the PstI-digested species (lower band) and undigested species (upper band). The fraction unremodeled value for each lane was then calculated using the following formula: fraction unremodeled= signalundigested/signalundigested+ signaldigested […]

ALC1 macrodomain [3] = molecular target: T2, ALC1 macrodomain; details: free ADP-ribose molecules; ref Singh et al., 2017; cited from earlier work
Excerpt: We therefore chose to pursue ALC1 for our initial ADP-ribosylated histone peptide interaction studies. Nine fluorescently-labeled, ADP-ribosylated histone peptides (H2BS6ADPr1-4 and H3S10ADPr ...

## CC(C)C[C@H](NC(=O)[C@H](CCC(N)=O)NC(=O)[C@H](CCCCN)NC(=O)[C@H](CCCNC(=N)N)NC(=O)[C@@H]1CCCN1C(=O)[C@H](C)NC(=O)[C@H](CCCCN)NC(=O)CNC(=O)CNC(=O)[C@@H](NC(=O)[C@H](CO[C@H]1O[C@H](COP(=O)(O)OP(=O)(O)OC[C@H]2O[C@@H](n3cnc4c(N)ncnc43)[C@H](O[C@H]3O[C@H](COP(=O)(O)OP(=O)(O)OC[C@H]4O[C@@H](n5cnc6c(N)ncnc65)[C@H](O[C@H]5O[C@H](COP(=O)(O)OP(=O)(O)OC[C@H]6O[C@@H](n7cnc8c(N)ncnc87)[C@H](O[C@H]7O[C@H](COP(=O)(O)OP(=O)(O)OC[C@H]8O[C@@H](n9cnc%10c(N)ncnc%109)[C@H](O[C@H]9O[C@H](COP(=O)(O)OP(=O)(O)OC[C@H]%10O[C@@H](n%11cnc%12c(N)ncnc%12%11)[C@H](O)[C@@H]%10O)[C@@H](O)[C@H]9O)[C@@H]8O)[C@@H](O)[C@H]7O)[C@@H]6O)[C@@H](O)[C@H]5O)[C@@H]4O)[C@@H](O)[C@H]3O)[C@@H]2O)[C@@H](O)[C@H]1O)NC(=O)[C@H](CCCCN)NC(=O)[C@H](CCCNC(=N)N)NC(=O)[C@H](C)NC(=O)[C@@H](NC(=O)[C@H](CCC(N)=O)NC(=O)[C@H](CCCCN)NC(=O)[C@@H](NC(=O)[C@H](CCCNC(=N)N)NC(=O)[C@H](C)NC(=O)c1ccc2c(c1)C(=O)OC21c2ccc(O)cc2Oc2cc(O)ccc21)[C@@H](C)O)[C@@H](C)O)[C@@H](C)O)C(N)=O [H3S10ADPr5 peptide]
[1]
  Kd: 42.5 nM
ALC1 macrodomain [2]
  Kd: 27.9 nM

## H2BS6ADPr4 peptide: H2B (1-16) peptide with tetra-ADP-ribose at S6; fluorescein-labeled in FP assays ({5(6)‑carboxyfluorescein}-PEPAKS(tetra‑ADP‑ribose)APAPKKGSKK-NH2)
ALC1
  k, ALC1 remodeling rate constant on unmodified nucleosome in the presence of free ADP-ribosylated peptide: 1.886e-05 min⁻¹

## H3S10ADPr4 peptide: H3 (1–20) peptide with tetra-ADP-ribose at S10; fluorescein-labeled in FP assays
ALC1; ALC1, unmodified nucleosome 20 nM, peptide 10, 40 or 200 nM
  stimulation of ALC1-dependent remodeling of unmodified nucleosomes by the freely diffusing peptide: unable to appreciably stimulate
ALC1
  k, ALC1 remodeling rate constant on unmodified nucleosome in the presence of free ADP-ribosylated peptide: 8.323e-05 min⁻¹

## tri-ADP-ribose
ALC1 macrodomain [3]
  Kd: ~10 nM
